In patent US20210038730A1, “PEPTIDE NANOFIBERS” (UNIVERSITY OF PORTSMOUTH HIGHER EDUCATION CORPORATION, priority 2018, published 2021):

Tests used:
[1] = test system: hCMEC/D3 endothelial cells; test: Cell uptake in endothelial cells (flow cytometry); assay type: cell-based, human; conditions: 4 hours of incubation, 50 μg mL^−1
Experimental: TPGnRH was labelled with Texas Red (TR) according to the manufacturer's protocol. Endothelial cells were seeded (227,000 cells/cm^2) in 24-well plates, allowed to attach for 24 hours, and then media was replaced by fresh media containing TR-TPGnRH at 50 μg mL^−1 in PBS. Cells were either incubated at 4 or 37° C. for 1 and 4 hours. At the end of a time-point, cells were washed with HBSS to remove the free nanofibers, incubated with 500 μL of TrypLE Express Enzyme and collected by centrifugation. The cell pellet was then re-suspended in PBS, and cells were analysed in BD FACS Calibur™ flow cytometer (BD Biosciences, Wiltshire, UK) acquiring at least 10,000 events. Data were analysed in FlowJo® Software 10.1. Unstained cells were used as a control in the flow cytometry settings.

U-87 MG cells = test: Cell uptake of TR-TPGnRH, U-87 MG; assay type: cell-based, human
Experimental: (§1) The U-87 MG and SK-OV-3 cells were seeded at 20,000 cells/cm^2 in a 12-well plate (76,000 cells per well). Cells were allowed to attach overnight, and then the media was replaced by fresh media (900 μL) containing TR-TPGnRH (50 μg mL^−1 in PBS, 100 μL, pH 7.4). Subsequently, cells were either incubated at 4 or 37° C. for 1 and 4 hours. At the end of each time-point, cells were washed with HBSS twice to wash the free fibres, incubated with 500 μL TrypLE Enzyme at 37° C. for 3 minutes, and then collected by centrifugation at 1,000 rpm for 5 minutes using a C-28A centrifuge. Cells were then re-suspended in PBS (200 μL) and analysed in BD FACSCalibur™ flow cytometer acquiring at least 10,000 events. Unstained cells were used as a control in the flow cytometry settings.

[2] = Permeability across in vitro blood-brain barrier model
Experimental: (§2) In order to test the permeability of TPGnRH nanofibers across the blood-brain barrier (BBB), a static contact co-culture was set up according to a previous method^7. Briefly, human astrocytes (SC-1800, 25,000 cells/well) were seeded on the abluminal side of a 24-well plate Transwell polycarbonate membrane (3 μm of a pore size, Corning Star, Deeside, UK) coated with human fibronectin. Cells were allowed to attach for 3 days, and then human brain microvascular endothelial cells (hCMEC/D3, 75,000 cells/well) were seeded on the luminal side of the Transwell and co-cultured with astrocytes for five days with a daily change of the media. Transendothelial resistance was measured using EVOM voltohmmeter (World Precision Instruments, Berlin, Germany).
(§3) Transwells were washed with HBSS and immersed into HBSS (600 μL in abluminal side). […] Samples (100 μL) were collected from the abluminal side at specific time-points, and fresh HBSS (100 μL) was used to replace the volume from the abluminal compartments. […] PAX was analysed using reverse phase-HPLC with the gradient method described on Table 2. TR-TPGnRH was quantified in POLARstar Omega plate reader spectrophotometer with λexc 596 and λem 615 nm. The permeability coefficient (Papp) was determined using the equation: […]
(§4) ΔQr, is the flux of drug along time (μg mL^−1), Vr is the volume of the abluminal side (mL), A is the area of the Transwell membrane, C0 is the concentration of drug in the luminal side, and 60, the converser factor from minutes to seconds^8.

SK-OV-3 cells = test: Cell uptake of TR-TPGnRH, SK-OV-3; assay type: cell-based, human
Experimental: as §1

[3] = test system: in vitro BBB model (hCMEC/D3 and SC-1800 co-culture); test: in vitro
Experimental: as §2, §3, §4

Papp [3] | Molecule | TR-TPGnRH+ cells ([1]; 4° C.) [%] | TR-TPGnRH+ cells ([1]; 37° C.) [%] | Cell uptake (U-87 MG cells; 1 Hour, 4° C.) | Cell uptake (U-87 MG cells; 1 Hour, 37° C.) | Cell uptake (U-87 MG cells; 4 Hours, 4° C.) | Cell uptake (U-87 MG cells; 4 Hours, 37° C.) | Papp A→B [2] [×10⁻⁶ cm/s] | Cell uptake (SK-OV-3 cells; SK-OV-3, 1 Hour, 4° C.) | Cell uptake (SK-OV-3 cells; SK-OV-3, 1 Hour, 37° C.) | Cell uptake (SK-OV-3 cells; SK-OV-3, 4 Hours, 4° C.) | Cell uptake (SK-OV-3 cells; SK-OV-3, 4 Hours, 37° C.)
 | CCCCCCCCCCCCCCCC(=O)Oc1ccc(C[C@H](NC(=O)[C@H](CO)NC(=O)[C@H](Cc2c[nH]c3ccccc23)NC(=O)[C@H](Cc2c[nH]cn2)NC(=O)[C@H](CCC(=O)O)NS(=O)(=O)c2ccc(-c3c4cc5c6c(c4[o+]c4c7c8c(cc34)CCCN8CCC7)CCCN6CCC5)c(S(=O)(=O)[O-])c2)C(=O)NCC(=O)N[C@@H](CC(C)C)C(=O)N[C@@H](CCCNC(=N)N)C(=O)N2CCC[C@H]2C(=O)NCC(N)=O)cc1 [Texas Red-TPGnRH] | 0.18±0.05 | 68.43±0.85 | 20.51 ± 3.10 | 32.64 ± 5.04 | 52.36 ± 10.20 | 91.12 ± 1.11 | 6 | 10.02 ± 0.52 | 13.35 ± 0.53 | 52.47 ± 3.34 | 49.36 ± 4.66
111.78 ± 24.30 ×10^−6 cm s^−1 | Texas Red [Free Texas Red] |  |  |  |  |  |  |  |  |  |  | 
